According to patent US10646472B2, “Composition comprising a photosensitive compound in a polymeric nanoparticle, and a method of using the composition” (Oregon State University, priority 2015, dated 2020):

System: Chinese Hamster Ovary (CHO-K1) cells
Test: In vitro micronucleus assay (genotoxicity)
Type: cell-based
Details: SiNc-NP 90 μg/mL, 24 hours; MMS 50 μg/mL positive control
Description: Genotoxicity describes the property of chemical agents that damages the genetic information within a cell causing mutations, which may lead to cancer. An in vitro micronucleus assay was used to determine the genotoxicity of SiNc-NP on Chinese Hamster Ovary (CHO-K1) cells. Cells were treated with SiNc-NP (90 μg/mL) for the experiment group, fresh media for negative control, or methyl methanesulfonate (MMS, 50 μg/mL) for a positive control.
A quantitative analysis was then performed to evaluate the genotoxicity. The analysis counted the number of micronuclei per 1000 cells.

With COS(C)(=O)=O [MMS, methyl methanesulfonate] the “appearance of cell nuclei (fluorescence imaging, DAPI)” value was “noticeable numbers of small buds/fragments appeared on or near cell nuclei”.
